Measured values reported in patent US20170304336A1, “COMBINATION” (priority 2014, published 2017).

Columns and labels:
Type in all cases: in vivo, male rats of Wistar line
[1] = tested on: experimental rat hypercholesterolemia model; test: Lipid spectrum of blood in experimental rat hypercholesterolemia model
Experimental: The animals used were male rats of Wistar line. […] The proposed model using rats as the experimental animals is a reproducible standard model for evaluation of hypocholesterolemic effect.
(§1) Evaluation of hypocholesterolemic efficacy and safety of pharmaceutical combination was performed in vivo in experimental rat hypercholesterolemia model.
(§2) For 90 days the studied animals received hypercholesterol diet for pathology induction. The diet included Cholesterol+Cholic acid+Overheated fats (deep fat).
For 90 days the animals received the said ration ad libitum (30 g feed per animal). Development of hypercholesterolemia in animals was evaluated based on changes in lipid spectrum parameters on Day 30 of the study.
(§3) Drugs were introduced intragastrically with an esophageal bougie daily on Day 31-90 of the study at the same time of day.
Biochemical parameters and activity of blood serum enzymes (total cholesterol (CHS), LDL-CHS, HDL-CHS, triglycerides.
1.0-1.84 ml blood samples for the study of biochemical parameters were taken from tail vein of rats. Blood samples were taken from the animals after 14-15-hour's fasting at same time of day (9.00-11.00). For biochemical parameters tests a Biochemical Analyzer A-25 (Biosystems, Spain) was used. […]

[2] = tested on: experimental rat hypercholesterolemia model; test: Biochemical blood analysis (drug toxicity parameters) in rat hypercholesterolemia model
Experimental: as §1, §2, §3
Biochemical parameters and activity of serum enzymes (aspartate- and alanine aminotransferase, creatine phosphokinase, urea, serum amylase, total bilirubin, direct bilirubin, indirect bilirubin, serum glucose, cations K^+, Na^+).
1.0-1.84 ml blood samples for the study of biochemical parameters were taken from tail vein of rats. Blood samples were taken from the animals after 14-15-hour's fasting at same time of day (9.00-11.00). For biochemical parameters tests a Biochemical Analyzer A-25 (Biosystems, Spain) was used.
Vol. 4. pp. 1794-1798; Pearlman F C and Lee R T Y. Clin Chem 1974, 20, 447-453; Zoppi F et al, Peracino A., Fenili D., Marcovina S. and Ramella C. Giorn It Chim Cl. […] C. et al Clin Chem. 1974. Vol. 20. pp. 470-475; and in Meiattini F., et al, Clin Chem. 1978. Vol. 24. pp. 2161-2165 (total cholesterol); Warnick G R et al. Clin Chem 2001, 47, 1579-96 (HDL/LDL); Bucolo G and David H. Clin Chem. 1973.-Vol. 19. pp. 476-482; and in Fossati P. and, Prencipe L., Clin Chem. 1982. Vol. 28. pp. 2077-2080 (triglycerides); Trinder P. Ann Clin Biochem. 1969. Vol. 6. pp. 24-27).

[3] = Mass coefficients of organs (pancreas, liver, kidneys) of rats; conditions: M ± m; for weight coefficient, Kidneys / weight coefficient, Liver: in %
Experimental: To calculate mass coefficients the pancreas, liver and kidneys of the animals were extracted. The organs were weighed and the mass coefficients were calculated by the following formula:
Mass coefficient=(organ weight/animal body weight)×100%

[4] = Day 30 of treatment (Day 60 of study), dose 20 mg
[5] = Day 30 of treatment (Day 60 of study), dose 40 mg
[6] = Day 30 of treatment, 20 mg as monotherapy
[7] = Day 60 of treatment (Day 90 of study), dose 20 mg
[8] = Day 60 of treatment (Day 90 of study), dose 40 mg
[9] = Day 30 of treatment (Day 60 of study), dose 108 mg
[10] = Day 60 of treatment (Day 90 of study), dose 108 mg
[11] = blood, Day 60 of the treatment (Day 90 of the study), LV + SGA 20 + 108 mg, LV 20 mg, SGA 108 mg
[12] = LV + SGA 20 + 108 mg, LV 20 mg, SGA 108 mg
[13] = Day 30 of treatment (Day 60 of study), dose 80 mg
[14] = Day 60 of treatment (Day 90 of study), dose 80 mg
[15] = blood, Day 60 of the treatment (Day 90 of the study), FV + GA 80 + 90 mg, FV 80 mg, GA 90 mg
[16] = FV + GA 80 + 90 mg, FV 80 mg, GA 90 mg

CCC(C)(C)C(=O)O[C@H]1C[C@@H](C)C=C2C=C[C@H](C)[C@H](CC[C@@H]3C[C@@H](O)CC(=O)O3)[C@H]21 [SV, (1S,3R,7S,8S,8aR)-8-{2-[(2R,4R)-4-hydroxy-6-oxotetrahydro-2H-pyran-2-yl]ethyl}-3,7-dimethyl-1,2,3,7,8,8a-hexahydronaphthalen-1-yl 2,2-dimethylbutanoate]
HDL CHS [1, 4]: 0.82 ± 0.06 mmol/L | LDL CHS [1, 4]: 3.75 ± 0.25 mmol/L | TG [1, 4]: 1.41 ± 0.11 mmol/L | Total CHS [1, 4]: 5.2 ± 0.2 mmol/L | HDL CHS [1, 5]: 0.58 ± 0.02 mmol/L | LDL CHS [1, 5]: 3.54 ± 0.20 mmol/L | TG [1, 5]: 1.27 ± 0.04 mmol/L | Total CHS [1, 5]: 4.2 ± 0.2 mmol/L | LDL decrease as compared to the control group [1, 6]: 35% | TG decrease as compared to the control group [1, 6]: 18% | decrease of the concentration of CHS as compared to the control group [1, 6]: 26% | increase in concentration of HDL as compared to the control group [1, 6]: 86% | HDL CHS [1, 7]: 0.77 ± 0.05 mmol/L | LDL CHS [1, 7]: 3.50 ± 0.05 mmol/L | TG [1, 7]: 1.43 ± 0.11 mmol/L | Total CHS [1, 7]: 4.9 ± 0.3 mmol/L | HDL CHS [1, 8]: 0.91 ± 0.02 mmol/L | LDL CHS [1, 8]: 3.20 ± 0.1 mmol/L | TG [1, 8]: 1.09 ± 0.05 mmol/L | Total CHS [1, 8]: 3.8 ± 0.1 mmol/L

CC1(C)[C@@H](O[C@H]2O[C@H](C(=O)O)[C@@H](O)[C@H](O)[C@H]2O[C@@H]2O[C@H](C(=O)O)[C@@H](O)[C@H](O)[C@H]2O)CC[C@]2(C)[C@H]3C(=O)C=C4[C@@H]5C[C@@](C)(C(=O)O)CC[C@]5(C)CC[C@@]4(C)[C@]3(C)CC[C@@H]12.[Na+] [SGA, sodium glycyrrhizinate]
HDL CHS [1, 9]: 0.53 ± 0.04 mmol/L | LDL CHS [1, 9]: 4.30 ± 0.41 mmol/L | TG [1, 9]: 1.3 ± 0.11 mmol/L | Total CHS [1, 9]: 5.0 ± 0.4 mmol/L | HDL CHS [1, 10]: 0.63 ± 0.03 mmol/L | LDL CHS [1, 10]: 4.00 ± 0.3 mmol/L | TG [1, 10]: 1.6 ± 0.11 mmol/L | Total CHS [1, 10]: 5.0 ± 0.4 mmol/L | ALT [2, 9]: 91 U/l | AST [2, 9]: 125 U/l | Amylase [2, 9]: 600 U/l | Bilirubin direct [2, 9]: 3.0 mg/dL | Bilirubin indirect [2, 9]: 1.2 mg/dL | Bilirubin total [2, 9]: 4.3 mg/dL | CPK [2, 9]: 308 U/l | Glucose [2, 9]: 110 mg/dL | Potassium [2, 9]: 2.5 mM | Sodium [2, 9]: 132 mmol | Urea [2, 9]: 6.8 mmol/L | ALT [2, 11]: 102 U/l | AST [2, 11]: 123 U/l | Amylase [2, 11]: 603 U/l | Bilirubin direct [2, 11]: 2.0 mg/dL | Bilirubin indirect [2, 11]: 1.9 mg/dL | Bilirubin total [2, 11]: 2.9 mg/dL | CPK [2, 11]: 331 U/l | Glucose [2, 11]: 120 mg/dL | Potassium [2, 11]: 3.2 mM | Sodium [2, 11]: 121 mmol | Urea [2, 11]: 5.2 mmol/L | weight coefficient, Pancreas [3, 12]: 0.22 ± 0.01^2 | weight coefficient, Kidneys [3, 12]: 0.81 ± 0.02 | weight coefficient, Liver [3, 12]: 4.42 ± 0.10

CC[C@H](C)C(=O)O[C@H]1C[C@@H](C)C=C2C=C[C@H](C)[C@H](CC[C@@H]3C[C@@H](O)CC(=O)O3)[C@H]21 [LV, (1S,3R,7S,8S,8aR)-8-{2-[(2R,4R)-4-hydroxy-6-oxooxan-2-yl]ethyl}-3,7-dimethyl-1,2,3,7,8,8a-hexahydronaphthalen-1-yl (2S)-2-methylbutanoate]
HDL CHS [1, 4]: 0.64 ± 0.05 mmol/L | LDL CHS [1, 4]: 4.25 ± 0.44 mmol/L | TG [1, 4]: 1.31 ± 0.12 mmol/L | Total CHS [1, 4]: 5.6 ± 0.1 mmol/L | HDL CHS [1, 5]: 0.89 ± 0.01 mmol/L | LDL CHS [1, 5]: 3.82 ± 0.20 mmol/L | TG [1, 5]: 1.22 ± 0.03 mmol/L | Total CHS [1, 5]: 4.5 ± 0.2 mmol/L | HDL CHS [1, 7]: 0.74 ± 0.04 mmol/L | LDL CHS [1, 7]: 3.92 ± 0.43 mmol/L | TG [1, 7]: 1.21 ± 0.11 mmol/L | Total CHS [1, 7]: 4.8 ± 0.2 mmol/L | HDL CHS [1, 8]: 0.90 ± 0.01 mmol/L | LDL CHS [1, 8]: 3.43 ± 0.23 mmol/L | TG [1, 8]: 1.20 ± 0.03 mmol/L | Total CHS [1, 8]: 4.1 ± 0.3 mmol/L | ALT [2, 4]: 160 U/l | AST [2, 4]: 183 U/l | Amylase [2, 4]: 646 U/l | Bilirubin direct [2, 4]: 2.1 mg/dL | Bilirubin indirect [2, 4]: 2.1 mg/dL | Bilirubin total [2, 4]: 4.6 mg/dL | CPK [2, 4]: 510 U/l | Glucose [2, 4]: 139 mg/dL | Sodium [2, 4]: 128 mmol | Urea [2, 4]: 7.3 mmol/L | ALT [2, 11]: 141 U/l | AST [2, 11]: 190 U/l | Amylase [2, 11]: 597 U/l | Bilirubin direct [2, 11]: 4.4 mg/dL | Bilirubin indirect [2, 11]: 2.3 mg/dL | Bilirubin total [2, 11]: 4.4 mg/dL | CPK [2, 11]: 597 U/l | Glucose [2, 11]: 148 mg/dL | Sodium [2, 11]: 128 mmol | Urea [2, 11]: 6.0 mmol/L | weight coefficient, Pancreas ([3]; LV 40 mg): 0.48 ± 0.03^1 | weight coefficient, Kidneys ([3]; LV 40 mg): 0.77 ± 0.01 | weight coefficient, Liver ([3]; LV 40 mg): 4.46 ± 0.15 | weight coefficient, Pancreas [3, 12]: 0.35 ± 0.04 | weight coefficient, Kidneys [3, 12]: 0.74 ± 0.02 | weight coefficient, Liver [3, 12]: 4.45 ± 0.11

CC(C)n1c(/C=C/[C@@H](O)C[C@@H](O)CC(=O)O)c(-c2ccc(F)cc2)c2ccccc21 (stereo in doubt) [FV, (3R,5S,6E)-7-[3-(4-fluorophenyl)-1-(propan-2-yl)-1H-indol-2-yl]-3,5-dihydroxyhept-6-enoic acid]
HDL CHS [1, 13]: 0.61 ± 0.04 mmol/L | LDL CHS [1, 13]: 3.31 ± 0.44 mmol/L | TG [1, 13]: 1.39 ± 0.14 mmol/L | Total CHS [1, 13]: 5.0 ± 0.3 mmol/L | HDL CHS [1, 14]: 0.72 ± 0.03 mmol/L | LDL CHS [1, 14]: 3.52 ± 0.44 mmol/L | TG [1, 14]: 1.45 ± 0.14 mmol/L | Total CHS [1, 14]: 4.9 ± 0.4 mmol/L | ALT [2, 13]: 170 U/l | AST [2, 13]: 191 U/l | Amylase [2, 13]: 637 U/l | Bilirubin direct [2, 13]: 2.6 mg/dL | Bilirubin indirect [2, 13]: 2.2 mg/dL | Bilirubin total [2, 13]: 4.0 mg/dL | CPK [2, 13]: 690 U/l | Glucose [2, 13]: 150 mg/dL | Potassium [2, 13]: 3 mM | Sodium [2, 13]: 125 mmol | Urea [2, 13]: 7.3 mmol/L | ALT [2, 15]: 148 U/l | AST [2, 15]: 200 U/l | Amylase [2, 15]: 590 U/l | Bilirubin direct [2, 15]: 1.4 mg/dL | Bilirubin indirect [2, 15]: 1.6 mg/dL | Bilirubin total [2, 15]: 4.2 mg/dL | CPK [2, 15]: 680 U/l | Glucose [2, 15]: 127 mg/dL | Potassium [2, 15]: 2.3 mM | Sodium [2, 15]: 124 mmol | Urea [2, 15]: 6.3 mmol/L | weight coefficient, Pancreas [3, 16]: 0.37 ± 0.03^1 | weight coefficient, Kidneys [3, 16]: 0.75 ± 0.03 | weight coefficient, Liver [3, 16]: 4.41 ± 0.12
